Consider five compounds from patent US6362170B1, “Benzylglycosylamides as inhibitors of smooth muscle cell proliferation” (American Home Products Corporation, priority 1998, dated 2002).

In this assay the test system is Porcine Smooth Muscle Cell. The assay can be described thus: Effects of compounds on cell proliferation using 3H thymidine incorporation. The assay is classed as cell-based. To be noted: serum/growth factor stimulated cells; for pIC50: 24-36 h incubation, read-out: Porcine Smooth Muscle Cell Antiproliferation IC50. The protocol: Effects of Compounds on Cell Proliferation Using ^3H Thymidine Incorporation
Human and porcine smooth muscle cells were tested in early passage (generally passage 3-7) at sub-confluent conditions. Cultures were grown in 16 mm (24 well) multi-well culture dishes in medium 199 supplemented with 10% fetal bovine serum and 2% antibiotic/antimycotic. At sub-confluence, the cells were placed in a defined serum free medium (AIM-V; Gibco) for 24-48 h prior to initiating the experimental protocol.
Compounds were added to each well at 50 fold dilution (20 μL/well) and the plates were incubated for 24-36 h at 37° C. in 5% CO2. Compounds were initially dissolved in 50% ethanol and serially diluted into media. Compounds were routinely evaluated at concentrations from 1 to 100 μM. As a control, grade II porcine intestinal mucosal heparin (sodium salt) was routinely evaluated in all cell preparations at concentrations from 0.1 to 100 μg/mL.
At the completion of the test procedure, plates were placed on ice, washed three times with ice cold phosphate buffered saline (PBS) and incubated in ice cold 10% trichloroacetic acid (TCA) got 30 min to remove acid soluble proteins. Solution was transferred to scintillation vials containing 0.4 N HCl (500 μL/vial to neutralize NaOH) and each well was rinsed two times with water (500 μL) for a total volume of 2 mL/vial.
Data was obtained, in triplicate, for both control and experimental samples. Control (100%) data was obtained from maximally stimulated cells, as the result of growth factor or serum stimulation. Experimental data was obtained from cells maximally stimulated with growth factor or serum and treated with compound. Data are provided below in Table 1 as an IC50.
A general note: Incorporation of labelled thymidine or its analogues reports DNA synthesis.

pIC50: −log10 of the molar value.

As to `CC(=O)OCC1OC(NC(=O)c2ccc(Cl)nc2)C(OC(C)=O)C(OC(C)=O)C1OC1OC(COC(C)=O)C(OC(C)=O)C(OC(C)=O)C1OC(C)=O` [Example 1, 6-Chloro-N-(Hepta-O-acetyl-β-D-cellobiosyl)-3-pyridinecarboxamide], the pIC50 was 5.45.

Consider `O=C(NC1OC(CO)C(OC2OC3COC(c4ccccc4)OC3C(O)C2O)C(O)C1O)c1ccc(Cl)nc1` [Example 2, N-(4′,6′-O-benzylidene-β-D-cellobiosyl)-6-chloro-nicotinamide], for which the “Porcine Smooth Muscle Cell Antiproliferation (% at 50 μM)” value came out at 40% at 50 μM.

As to `COc1ccc(C(=O)NC2OC(COC(C)=O)C(OC3OC(COC(C)=O)C(OC(C)=O)C(OC(C)=O)C3OC(C)=O)C(OC(C)=O)C2OC(C)=O)c(OC)n1` (centres unmarked) [Example 4], the pIC50 is 5.51.

For `CC(=O)OCC1OC(NC(=O)c2ccc(F)c(Cl)c2)C(OC(C)=O)C(OC(C)=O)C1OC1OC(COC(C)=O)C(OC(C)=O)C(OC(C)=O)C1OC(C)=O` [Example 5, N-(hepta-O-acetyl-β-D-cellobiosyl)-3-chloro-4-fluoro-benzamide], the pIC50 was 4.93.

`O=C(NC1OC(CO)C(OC2OC3COC(c4ccccc4)OC3C(O)C2O)C(O)C1O)c1ccc(F)cc1Cl` [Example 6, N-(4′,6′-O-benzylidene-β-D-cellobiosyl)-2-chloro-4-flouro-benzamide]: the “Porcine Smooth Muscle Cell Antiproliferation (% at 50 μM)” value was found to be 5% at 50 μM.
